# Results taken from patent publication US20210253572A1, “IMIDAZO[1,2-B]PYRIDAZINES AS TRK INHIBITORS” (BenevolentAl Bio Limited, priority 2018, published 2021).
# How the values were obtained:
# Format in all cases: biochemical
# TrkA = biological target: T1, TrkA (Homo sapiens, UniProt P04629); assay: HTRF KinEASE kinase assay, recombinant Human TRK enzyme, TrkA (NTRK1); settings: NTRK1 4 nM, read-out: TrkA Enz
# T1 construct: purchased Invitrogen
# Method: (§1) A suitable assay for determining the Trk inhibition activity of a compound is detailed herein below.
# (§2) To determine the IC50 of small molecule compounds for the Human TRK receptors, HTRF® KinEASE™ kinase kits from Cisbio were used. Assays were carried out in low volume, black 384-well plates.
# (§3) Recombinant Human TRK enzymes (Invitrogen) were incubated in the presence or absence of the compound (11-point dose response with FAC as 10 μM) for 30 minutes at 23° C. Kinase reaction was started by addition of ATP to a mixture containing the enzyme (NTRK1-4 nM, NTRK2-1 nM, NTRK3-10 nM) and substrate (1 μM). Kinase reaction was allowed to carry on for 10 to 45 minutes at 23° C. after which it was stopped by addition of the detection mix (supplied by vendor) containing EDTA, TK-Ab-labelled with Eu^3+-cryptate (1:200 dilutions) and Streptavidin-XL665 (250 nM). Assay plates were incubated in this detection mix for 60 minutes at 23° C. The resulting TR-FRET signal, calculated as the fluorescence ratio at 665/620 nm, was read on an Envision and was proportional to the level of phosphorylation of the peptide in the presence or absence of the compound. The uniformity of the plates were assured with Z′ value [1−{3*(SDHPE+SDZPE)/(ZPE−HPE)}]. The percent (%) effect i.e. Inhibition of compound was calculated in comparison to the signal in the positive (HPE) and negative control (ZPE) wells within each assay plate. The endpoint value % Inhibition for the Standard compound was evaluated in each experiment as a quality control measure. IC50 was determined by plotting compound inhibition at respective dose in Graphpad prism5 using four parameter logistic curve fit.
# TrkB = biological target: T2, TrkB (Homo sapiens, UniProt Q16620); assay: HTRF KinEASE kinase assay, recombinant Human TRK enzyme, TrkB (NTRK2); settings: NTRK2 1 nM, read-out: TrkB Enz
# T2 construct: purchased Invitrogen
# Method: as §1, §2, §3
# TrkC = biological target: T3, TrkC (Homo sapiens, UniProt Q16288); assay: HTRF KinEASE kinase assay, recombinant Human TRK enzyme, TrkC (NTRK3); settings: NTRK3 10 nM, read-out: TrkC Enz
# T3 construct: purchased Invitrogen
# Method: as §1, §2, §3
# T1 sequence (P04629 33-796): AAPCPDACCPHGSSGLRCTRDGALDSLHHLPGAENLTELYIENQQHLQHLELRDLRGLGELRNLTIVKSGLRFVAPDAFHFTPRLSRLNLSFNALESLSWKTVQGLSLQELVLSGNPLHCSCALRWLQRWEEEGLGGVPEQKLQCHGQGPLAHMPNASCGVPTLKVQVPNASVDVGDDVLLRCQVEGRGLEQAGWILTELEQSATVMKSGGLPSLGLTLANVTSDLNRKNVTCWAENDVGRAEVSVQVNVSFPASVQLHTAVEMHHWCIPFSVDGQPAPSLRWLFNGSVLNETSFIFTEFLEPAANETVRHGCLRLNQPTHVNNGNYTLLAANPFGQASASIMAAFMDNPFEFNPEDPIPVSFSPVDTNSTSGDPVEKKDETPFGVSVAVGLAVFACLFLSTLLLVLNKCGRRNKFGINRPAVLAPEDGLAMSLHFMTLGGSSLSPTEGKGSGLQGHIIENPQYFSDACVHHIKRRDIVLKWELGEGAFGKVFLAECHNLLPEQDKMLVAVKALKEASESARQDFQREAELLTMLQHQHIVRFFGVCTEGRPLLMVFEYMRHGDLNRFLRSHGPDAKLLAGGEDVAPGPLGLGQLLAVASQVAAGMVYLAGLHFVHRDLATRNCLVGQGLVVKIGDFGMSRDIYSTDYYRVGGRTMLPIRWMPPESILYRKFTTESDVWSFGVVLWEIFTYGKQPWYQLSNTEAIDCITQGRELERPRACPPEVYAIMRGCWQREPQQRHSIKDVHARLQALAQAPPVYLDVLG
# T3 sequence (Q16288 32-839): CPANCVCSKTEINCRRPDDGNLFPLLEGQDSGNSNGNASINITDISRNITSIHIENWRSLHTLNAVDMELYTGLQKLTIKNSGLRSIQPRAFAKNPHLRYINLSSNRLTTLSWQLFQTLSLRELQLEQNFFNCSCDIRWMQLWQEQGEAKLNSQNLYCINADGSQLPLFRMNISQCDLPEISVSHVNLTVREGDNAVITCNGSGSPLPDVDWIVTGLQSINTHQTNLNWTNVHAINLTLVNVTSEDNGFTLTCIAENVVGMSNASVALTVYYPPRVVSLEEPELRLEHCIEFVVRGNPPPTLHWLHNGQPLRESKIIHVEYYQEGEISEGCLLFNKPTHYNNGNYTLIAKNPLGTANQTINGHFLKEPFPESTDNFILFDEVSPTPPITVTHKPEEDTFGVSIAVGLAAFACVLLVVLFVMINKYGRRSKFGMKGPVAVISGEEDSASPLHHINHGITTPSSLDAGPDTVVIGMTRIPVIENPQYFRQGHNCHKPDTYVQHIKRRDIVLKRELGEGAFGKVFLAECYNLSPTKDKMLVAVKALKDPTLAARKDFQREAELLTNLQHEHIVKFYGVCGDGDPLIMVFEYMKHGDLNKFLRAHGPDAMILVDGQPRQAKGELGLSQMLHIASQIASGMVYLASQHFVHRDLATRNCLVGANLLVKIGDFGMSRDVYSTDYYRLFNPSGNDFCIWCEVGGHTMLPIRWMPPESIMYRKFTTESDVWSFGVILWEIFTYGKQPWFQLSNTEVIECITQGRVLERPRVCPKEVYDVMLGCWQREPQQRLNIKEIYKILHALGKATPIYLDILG
# T2 sequence (Q16620 32-822): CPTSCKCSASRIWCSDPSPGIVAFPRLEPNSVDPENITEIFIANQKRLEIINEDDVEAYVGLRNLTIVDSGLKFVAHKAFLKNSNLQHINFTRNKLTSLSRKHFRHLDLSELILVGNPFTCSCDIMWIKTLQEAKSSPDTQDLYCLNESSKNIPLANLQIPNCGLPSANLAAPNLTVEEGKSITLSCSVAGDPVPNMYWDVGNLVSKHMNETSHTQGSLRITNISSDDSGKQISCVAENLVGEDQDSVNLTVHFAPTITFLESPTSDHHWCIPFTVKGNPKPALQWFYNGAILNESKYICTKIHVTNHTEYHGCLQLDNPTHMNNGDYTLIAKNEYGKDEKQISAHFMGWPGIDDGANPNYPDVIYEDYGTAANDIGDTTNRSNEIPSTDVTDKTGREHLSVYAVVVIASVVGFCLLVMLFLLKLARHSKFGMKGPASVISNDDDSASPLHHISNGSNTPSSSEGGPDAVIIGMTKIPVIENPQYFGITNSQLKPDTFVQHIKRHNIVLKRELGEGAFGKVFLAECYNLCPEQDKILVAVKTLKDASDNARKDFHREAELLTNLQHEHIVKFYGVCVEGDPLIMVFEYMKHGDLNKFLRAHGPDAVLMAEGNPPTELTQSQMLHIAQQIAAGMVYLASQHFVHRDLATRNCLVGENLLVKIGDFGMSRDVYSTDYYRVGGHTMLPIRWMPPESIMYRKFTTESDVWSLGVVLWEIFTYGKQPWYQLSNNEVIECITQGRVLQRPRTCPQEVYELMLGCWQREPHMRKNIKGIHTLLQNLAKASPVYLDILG
IC50 (TrkA) [nM],IC50 (TrkB) [nM],IC50 (TrkC) [nM],SMILES
6.9,23.6,17.3,"CSc1cc(F)cc([C@H]2C[C@H](F)CN2c2ccc3ncc(C(=O)N[C@@H]4COCCN(Cc5ccc(F)c(O)c5)C4)n3n2)c1 (single isomer, unassigned) [Example 24]"
6.1,11.4,8.72,"CSc1cc(F)cc([C@H]2C[C@H](F)CN2c2ccc3ncc(C(=O)N[C@H]4COCCN(Cc5ccc(F)c(O)c5)C4)n3n2)c1 (single isomer, unassigned) [Example 25]"
1.77,2.06,2.81,"CSc1ccc(F)cc1[C@H]1CCCN1c1ccc2ncc(C(=O)NC3CN(Cc4ccc(F)c(O)c4)C3)n2n1 [Example 1, 6-[(2R)-2-[5-fluoro-2-(methylsulfanyl)phenyl]pyrrolidin-1-yl]-N-{1-[(4-fluoro-3-hydroxyphenyl)methyl]azetidin-3-yl}imidazo[1,2-b]pyridazine-3-carboxamide]"
1.78,3.33,3.36,"CSc1ccc(F)cc1[C@H]1CCCN1c1ccc2ncc(C(=O)N[C@H]3CCN(Cc4ccc(F)c(O)c4)C3)n2n1 [Example 2, 6-[(2R)-2-[5-fluoro-2-(methylsulfanyl)phenyl]pyrrolidin-1-yl]-N-[(3S)-1-[(4-fluoro-3-hydroxyphenyl)methyl]pyrrolidin-3-yl]imidazo[1,2-b]pyridazine-3-carboxamide]"
0.92,0.79,1.19,"CSc1ccc(F)cc1[C@H]1C[C@H](F)CN1c1ccc2ncc(C(=O)NC3CCN(Cc4cccc(O)c4)CC3)n2n1 [Example 3, 6-[(2R,4S)-4-fluoro-2-[5-fluoro-2-(methylsulfanyl)phenyl]pyrrolidin-1-yl]-N-{1-[(3-hydroxyphenyl)methyl]piperidin-4-yl}imidazo[1,2-b]pyridazine-3-carboxamide]"
1.75,1.05,1.93,"CSc1ccc(F)cc1[C@H]1C[C@H](F)CN1c1ccc2ncc(C(=O)NC3CN(Cc4ccc(F)c(O)c4)C3)n2n1 [Example 4, 6-[(2R,4S)-4-fluoro-2-[5-fluoro-2-(methylsulfanyl)phenyl]pyrrolidin-1-yl]-N-{1-[(4-fluoro-3-hydroxyphenyl)methyl]azetidin-3-yl}imidazo[1,2-b]pyridazine-3-carboxamide]"
1.9,1.19,2.11,"CSc1ccc(F)cc1[C@H]1C[C@H](F)CN1c1ccc2ncc(C(=O)NC3CN(Cc4cccc(O)c4)C3)n2n1 [Example 5, 6-[(2R,4S)-4-fluoro-2-[5-fluoro-2-(methylsulfanyl)phenyl]pyrrolidin-1-yl]-N-{1-[(3-hydroxyphenyl)methyl]azetidin-3-yl}imidazo[1,2-b]pyridazine-3-carboxamide]"
1.47,0.81,1.56,"CSc1ccc(F)cc1[C@H]1C[C@H](F)CN1c1ccc2ncc(C(=O)NC3CCN(Cc4ccc(F)c(O)c4)CC3)n2n1 [Example 6, 6-[(2R,4S)-4-fluoro-2-[5-fluoro-2-(methylsulfanyl)phenyl]pyrrolidin-1-yl]-N-{1-[(4-fluoro-3-hydroxyphenyl)methyl]piperidin-4-yl}imidazo[1,2-b]pyridazine-3-carboxamide]"
0.9,0.49,1.25,"CSc1ccc(F)cc1[C@H]1C[C@H](F)CN1c1ccc2ncc(C(=O)NCc3cccc(O)c3)n2n1 [Example 7, 6-[(2R,4S)-4-fluoro-2-[5-fluoro-2-(methylsulfanyl)phenyl]pyrrolidin-1-yl]-N-[(3-hydroxyphenyl)methyl]imidazo[1,2-b]pyridazine-3-carboxamide]"
0.79,1.51,1.64,"CSc1ccc(F)cc1[C@H]1C[C@H](F)CN1c1ccc2ncc(C(=O)N[C@H]3CCN(Cc4cccc(O)c4)C3)n2n1 [Example 8, 6-[(2R,4S)-4-fluoro-2-[5-fluoro-2-(methylsulfanyl)phenyl]pyrrolidin-1-yl]-N-[(3S)-1-[(3-hydroxyphenyl)methyl]pyrrolidin-3-yl]imidazo[1,2-b]pyridazine-3-carboxamide]"
3.81,8.76,8.43,"CCCCC(=O)Oc1cccc(CN2CC[C@H](NC(=O)c3cnc4ccc(N5C[C@@H](F)C[C@@H]5c5cc(F)ccc5SC)nn34)C2)c1 [Example 9, 3-{[(3S)-3-{6-[(2R,4S)-4-fluoro-2-[5-fluoro-2-(methylsulfanyl)phenyl]pyrrolidin-1-yl]imidazo[1,2-b]pyridazine-3-amido}pyrrolidin-1-yl]methyl}phenyl Pentanoate]"
1.18,2.15,2.12,"COC(=O)c1cccc(CN2CC[C@H](NC(=O)c3cnc4ccc(N5C[C@@H](F)C[C@@H]5c5cc(F)ccc5SC)nn34)C2)c1 [Example 10, Methyl 3-{[(3S)-3-{6-[(2R,4S)-4-fluoro-2-[5-fluoro-2-(methylsulfanyl)phenyl]pyrrolidin-1-yl]imidazo[1,2-b]pyridazine-3-amido}pyrrolidin-1-yl]methyl}benzoate]"
1.57,2.27,2.46,"CSc1ccc(F)cc1[C@H]1C[C@H](F)CN1c1ccc2ncc(C(=O)N[C@H]3CCN(Cc4ccc(F)c(O)c4)C3)n2n1 [Example 11, 6-[(2R,4S)-4-fluoro-2-[5-fluoro-2-(methylsulfanyl)phenyl]pyrrolidin-1-yl]-N-[(3S)-1-[(4-fluoro-3-hydroxyphenyl)methyl]pyrrolidin-3-yl]imidazo[1,2-b]pyridazine-3-carboxamide]"
3.82,10.3,10.9,"CCCCOC(=O)c1cccc(CN2CC[C@H](NC(=O)c3cnc4ccc(N5C[C@@H](F)C[C@@H]5c5cc(F)ccc5SC)nn34)C2)c1 [Example 12, Butyl 3-{[(3S)-3-{6-[(2R,4S)-4-fluoro-2-[5-fluoro-2-(methylsulfanyl)phenyl]pyrrolidin-1-yl]imidazo[1,2-b]pyridazine-3-amido}pyrrolidin-1-yl]methyl}benzoate]"
1.7,2.53,2.01,"CCOC(=O)c1cccc(CN2CC[C@H](NC(=O)c3cnc4ccc(N5C[C@@H](F)C[C@@H]5c5cc(F)ccc5SC)nn34)C2)c1 [Example 13, Ethyl 3-{[(3S)-3-{6-[(2R,4S)-4-fluoro-2-[5-fluoro-2-(methylsulfanyl)phenyl]pyrrolidin-1-yl]imidazo[1,2-b]pyridazine-3-amido}pyrrolidin-1-yl]methyl}benzoate]"
0.95,0.57,1.47,"CSc1ccc(F)cc1[C@H]1C[C@H](F)CN1c1ccc2ncc(C(=O)NCc3ccc(F)c(O)c3)n2n1 [Example 14, 6-[(2R,4S)-4-fluoro-2-[5-fluoro-2-(methylsulfanyl)phenyl]pyrrolidin-1-yl]-N-[(4-fluoro-3-hydroxyphenyl)methyl]imidazo[1,2-b]pyridazine-3-carboxamide]"
4.86,9.15,8.3,"CSc1cc(F)cc([C@H]2CCCN2c2ccc3ncc(C(=O)N[C@H]4CCN(Cc5ccc(F)c(O)c5)C4)n3n2)c1 [Example 15, N-[(3S)-1-[(4-fluoro-3-hydroxyphenyl)methyl]pyrrolidin-3-yl]-6-[(2R)-2-[3-fluoro-5-(methylsulfanyl)phenyl]pyrrolidin-1-yl]imidazo[1,2-b]pyridazine-3-carboxamide]"
1.73,4.54,3.28,"COC(=O)c1cccc(CN2CC[C@H](NC(=O)c3cnc4ccc(N5C[C@@H](F)C[C@@H]5c5cc(F)cc(SC)c5)nn34)C2)c1 [Example 16, Methyl 3-{[(3S)-3-{6-[(2R,4S)-4-fluoro-2-[3-fluoro-5-(methylsulfanyl)phenyl]pyrrolidin-1-yl]imidazo[1,2-b]pyridazine-3-amido}pyrrolidin-1-yl]methyl}benzoate]"
2.41,5.04,4.62,"CSc1cc(F)cc([C@H]2C[C@H](F)CN2c2ccc3ncc(C(=O)N[C@H]4CCN(Cc5cccc(O)c5)C4)n3n2)c1 [Example 17, 6-[(2R,4S)-4-fluoro-2-[3-fluoro-5-(methylsulfanyl)phenyl]pyrrolidin-1-yl]-N-[(3S)-1-[(3-hydroxyphenyl)methyl]pyrrolidin-3-yl]imidazo[1,2-b]pyridazine-3-carboxamide]"
2.87,7.82,5.19,"CSc1cc(F)cc([C@H]2C[C@H](F)CN2c2ccc3ncc(C(=O)N[C@H]4CCN(Cc5ccc(F)c(O)c5)C4)n3n2)c1 [Example 18, 6-[(2R,4S)-4-fluoro-2-[3-fluoro-5-(methylsulfanyl)phenyl]pyrrolidin-1-yl]-N-[(3S)-1-[(4-fluoro-3-hydroxyphenyl)methyl]pyrrolidin-3-yl]imidazo[1,2-b]pyridazine-3-carboxamide]"
